Laboratory results: US20200270309A1, “MALEIMIDE GROUP-MODIFIED ANGIOGENESIS INHIBITOR HM-1 AND USE THEREOF” (NANJING ANJI BIOLOGICAL TECHNOLOGY CO., LTD, priority 2017, published 2020)
Marks after values point to notes of the source that are not given here. Peptide text beside a SMILES is read from it. * marks the point of attachment. X54 = O=C1C=CC(=O)N1c1cccc(CCCCCCC(=O)*)c1; X71 = O=C1C=CC(=O)N1c1cccc(CCCCCC(=O)*)c1; X46 = O=C1C=CC(=O)N1c1cccc(CCCCC(=O)*)c1; X61 = O=C1C=CC(=O)N1c1cccc(CCCC(=O)*)c1

Experiments:
HUVECs = assay: Transwell migration inhibition on HUVECs; assay type: cell-based, human; conditions: for Inhibition rate (%): HUVEC migration vs blank control; for Cell migration number (Mean ± SD): HUVECs, transwell, 24 h
[1] = tested on: IL-1β production by mouse peritoneal macrophages; assay: IL-1β production by mouse peritoneal macrophages (ELISA); assay type: cell-based; conditions: for Inhibition rate: IL-1β production, vs model group; for IL-1β: mouse peritoneal macrophages, 48 h, ELISA
How it was run: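 Peptides tested at three concentration levels on adherent peritoneal macrophages harvested from mice 3 days after i.p. 6% starch broth, plated at 2×10^6 cells/mL. After 48 h culture with Dex as reference, IL-1β in supernatants was quantified.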

[2] = tested on: xylene-induced ear swelling; assay: Xylene-induced mouse ear swelling; assay type: in vivo; conditions: Kunming mice, injected once a day for 5 days; for Swelling degree / Swelling degree (mg): right minus left ear piece weight 2 h after xylene; for Inhibition rate (%): xylene-induced ear swelling
How it was run: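 Ear pieces punched and weighed 2 h after xylene (0.05 mL, right ear only; left ear as normal) gave swelling degree (right − left weight) and swelling rate (degree/left weight ×100%). Kunming mice received injections daily for 5 consecutive days, xylene applied 1 h after final dose.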

[3] = tested on: carrageenan-induced toe swelling; assay: Carrageenan-induced toe swelling in rats; assay type: in vivo; conditions: SD rats; for Swelling degree 1 h: 1 h after carrageenan; for Swelling degree 3 h: 3 h after carrageenan; for Swelling degree 5 h: 5 h after carrageenan; for Swelling degree 7 h: 7 h after carrageenan
How it was run: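 Paw swelling, in mL, is the post-inflammation minus pre-inflammation volume of the right hind foot, read as overflow liquid when immersed to a pen-marked joint. Treatment was daily injection over 3 d; model group received saline of the same volume.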

[4] = tested on: choroidal neovascularization; assay: Choroidal neovascularization in rats (laser photocoagulation, FFA); assay type: in vivo; conditions: BN rats
How it was run: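 Male BN rats aged 6-8 weeks were given 8 krypton-laser spots around the optic disc (647.1 nm, 350 mW, 50 μm, 0.05 s). Once the model was confirmed, groups of 5 got daily intravitreal compound at 0.05 μM or saline for 1 week. FFA followed at 3, 7, 14 and 28 days after dosing.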

[5] = day 3 after administration, total light spot number was 297, 0.05 μM in the vitreous chamber once a day for 1 week
[6] = day 7 after administration, total light spot number was 186, 0.05 μM in the vitreous chamber once a day for 1 week
[7] = day 14 after administration, total light spot number was 137, 0.05 μM in the vitreous chamber once a day for 1 week
[8] = day 28 after administration, total light spot number was 69, 0.05 μM in the vitreous chamber once a day for 1 week

SMILES | Inhibition rate (%) (HUVECs; dose 0.05 μM) | Inhibition rate (%) (HUVECs; dose 0.1 μM) | Inhibition rate (%) (HUVECs; dose 0.2 μM) | Inhibition rate ([1]; dose 0.05 μM) | IL-1β ([1]; dose 0.05 μM) | Inhibition rate ([1]; dose 0.1 μM) | IL-1β ([1]; dose 0.1 μM) | Inhibition rate ([1]; dose 0.2 μM) | IL-1β ([1]; dose 0.2 μM) | Inhibition rate (%) ([2]; dose 2 mg/kg) | Inhibition rate (%) ([2]; dose 4 mg/kg) | Swelling degree (mg) ([2]; dose 8 mg/kg) | Inhibition rate (%) ([2]; dose 8 mg/kg) | Swelling degree 1 h ([3]; 2.0 mg/kg once a day for 3 d) | Swelling degree 3 h ([3]; 2.0 mg/kg once a day for 3 d) | Swelling degree 5 h ([3]; 2.0 mg/kg once a day for 3 d) | Swelling degree 7 h ([3]; 2.0 mg/kg once a day for 3 d) | Swelling degree 1 h ([3]; 4.0 mg/kg once a day for 3 d) | Swelling degree 3 h ([3]; 4.0 mg/kg once a day for 3 d) | Swelling degree 5 h ([3]; 4.0 mg/kg once a day for 3 d) | also measured
C[C@H](NC(=O)CNC(=O)[C@H](CCCNC(=N)N)NC(=O)CCCc1cccc(N2C(=O)C=CC2=O)c1)C(=O)N[C@@H](CC(=O)O)C(=O)N[C@@H](CCCNC(=N)N)C(=O)N[C@@H](C)C(=O)NCC(=O)NCC(=O)NCC(=O)NCC(=O)N[C@@H](CCCNC(=N)N)C(=O)NCC(=O)N[C@@H](CC(=O)O)C(=O)O [X27] (X61-RGADRAGGGGRGD-OH) | 46.39% | 49.01% | 53.38% | 25.91% | 697.32 ± 17.18 pg/mL | 30.97% | 649.68 ± 18.74 pg/mL | 33.62% | 624.72 ± 14.38 pg/mL | 13.96% | 23.60% | 3.13 ± 0.38* mg | 27.13% | 0.27 ± 0.13 mg | 0.33 ± 0.14 mg | 0.39 ± 0.17 mg | 0.36 ± 0.16 mg | 0.24 ± 0.12 mg | 0.33 ± 0.16 mg | 0.32 ± 0.17 mg | Cell migration number (Mean ± SD) (HUVECs; dose 0.05 μM): 574.65 ± 60.83; Cell migration number (Mean ± SD) (HUVECs; dose 0.1 μM): 546.51 ± 46.67; Cell migration number (Mean ± SD) (HUVECs; dose 0.2 μM): 499.65 ± 59.06; Swelling degree ([2]; dose 2 mg/kg): 5.36 ± 0.32 mg; Swelling degree (mg) ([2]; dose 4 mg/kg): 4.76 ± 0.89* mg; Swelling degree 7 h ([3]; 4.0 mg/kg once a day for 3 d): 0.34 ± 0.14 mg; CNV Incidence (%) [4, 5]: 54.88%; Leakage Light spot number [4, 5]: 163; CNV Incidence (%) [4, 6]: 46.24%; Leakage Light spot number [4, 6]: 86; CNV Incidence (%) [4, 7]: 42.34%; Leakage Light spot number [4, 7]: 58; CNV Incidence (%) [4, 8]: 36.23%; Leakage Light spot number [4, 8]: 25
C[C@H](NC(=O)CNC(=O)[C@H](CCCNC(=N)N)NC(=O)CCCCc1cccc(N2C(=O)C=CC2=O)c1)C(=O)N[C@@H](CC(=O)O)C(=O)N[C@@H](CCCNC(=N)N)C(=O)N[C@@H](C)C(=O)NCC(=O)NCC(=O)NCC(=O)NCC(=O)N[C@@H](CCCNC(=N)N)C(=O)NCC(=O)N[C@@H](CC(=O)O)C(=O)O [X28] (X46-RGADRAGGGGRGD-OH) | 43.01% | 52.75% | 53.13% | 15.78% | 792.64 ± 11.74 pg/mL | 31.90% | 640.89 ± 14.7 pg/mL | 32.28% | 637.34 ± 10.85 pg/mL | 33.87% | 15.73% | 4.12 ± 0.93* mg | 21.99% | 0.29 ± 0.13 mg | 0.35 ± 0.15 mg | 0.45 ± 0.17 mg | 0.36 ± 0.14 mg | 0.28 ± 0.15 mg | 0.34 ± 0.11 mg | 0.37 ± 0.17 mg | Swelling degree (mg) ([2]; dose 2 mg/kg): 5.25 ± 0.56** mg; Swelling degree ([2]; dose 4 mg/kg): 4.86 ± 0.63 mg; Swelling degree 7 h ([3]; 4.0 mg/kg once a day for 3 d): 0.35 ± 0.18 mg; CNV Incidence (%) [4, 5]: 50.17%; Leakage Light spot number [4, 5]: 149; CNV Incidence (%) [4, 6]: 46.77%; Leakage Light spot number [4, 6]: 87; CNV Incidence (%) [4, 7]: 45.26%; Leakage Light spot number [4, 7]: 62; CNV Incidence (%) [4, 8]: 40.58%; Leakage Light spot number [4, 8]: 28
C[C@H](NC(=O)CNC(=O)[C@H](CCCNC(=N)N)NC(=O)CCCCCc1cccc(N2C(=O)C=CC2=O)c1)C(=O)N[C@@H](CC(=O)O)C(=O)N[C@@H](CCCNC(=N)N)C(=O)N[C@@H](C)C(=O)NCC(=O)NCC(=O)NCC(=O)NCC(=O)N[C@@H](CCCNC(=N)N)C(=O)NCC(=O)N[C@@H](CC(=O)O)C(=O)O [X29] (X71-RGADRAGGGGRGD-OH) | 46.37% | 50.43% | 53.84% | 16.20% | 788.74 ± 15.39 pg/mL | 21.75% | 736.46 ± 14.72 pg/mL | 40.73% | 557.81 ± 12.11 pg/mL | 12.84% | 20.39% | 3.86 ± 0.45** mg | 38.04% | 0.27 ± 0.16 mg | 0.35 ± 0.18 mg | 0.36 ± 0.19 mg | 0.33 ± 0.17 mg | 0.22 ± 0.12 mg | 0.34 ± 0.15 mg | 0.35 ± 0.13 mg | Cell migration number (Mean ± SD) (HUVECs; dose 0.05 μM): 574.88 ± 55.42; Cell migration number (Mean ± SD) (HUVECs; dose 0.1 μM): 531.34 ± 47.59; Cell migration number (Mean ± SD) (HUVECs; dose 0.2 μM): 494.73 ± 56.78; Swelling degree ([2]; dose 2 mg/kg): 5.43 ± 0.91 mg; Swelling degree (mg) ([2]; dose 4 mg/kg): 4.96 ± 0.1* mg; Swelling degree 7 h ([3]; 4.0 mg/kg once a day for 3 d): 0.32 ± 0.17 mg; CNV Incidence (%) [4, 5]: 54.21%; Leakage Light spot number [4, 5]: 161; CNV Incidence (%) [4, 6]: 45.70%; Leakage Light spot number [4, 6]: 85; CNV Incidence (%) [4, 7]: 40.88%; Leakage Light spot number [4, 7]: 56; CNV Incidence (%) [4, 8]: 39.13%; Leakage Light spot number [4, 8]: 27
C[C@H](NC(=O)CNC(=O)[C@H](CCCNC(=N)N)NC(=O)CCCCCCc1cccc(N2C(=O)C=CC2=O)c1)C(=O)N[C@@H](CC(=O)O)C(=O)N[C@@H](CCCNC(=N)N)C(=O)N[C@@H](C)C(=O)NCC(=O)NCC(=O)NCC(=O)NCC(=O)N[C@@H](CCCNC(=N)N)C(=O)NCC(=O)N[C@@H](CC(=O)O)C(=O)O [X30] (X54-RGADRAGGGGRGD-OH) | 41.12% | 53.55% | 53.58% | 28.30% | 674.82 ± 10.45 pg/mL | 33.96% | 621.53 ± 19.69 pg/mL | 37.33% | 589.79 ± 19.66 pg/mL | 16.69% | 18.62% | 3.77 ± 0.38** mg | 39.49% | 0.26 ± 0.15 mg | 0.36 ± 0.18 mg | 0.40 ± 0.16 mg | 0.35 ± 0.11 mg | 0.25 ± 0.19 mg | 0.33 ± 0.13 mg | 0.39 ± 0.18 mg | Cell migration number (Mean ± SD) (HUVECs; dose 0.05 μM): 631.10 ± 64.04; Cell migration number (Mean ± SD) (HUVECs; dose 0.1 μM): 497.88 ± 65.38; Cell migration number (Mean ± SD) (HUVECs; dose 0.2 μM): 497.56 ± 68.24; Swelling degree ([2]; dose 2 mg/kg): 5.19 ± 0.57 mg; Swelling degree ([2]; dose 4 mg/kg): 5.07 ± 0.49 mg; Swelling degree 7 h ([3]; 4.0 mg/kg once a day for 3 d): 0.34 ± 0.15 mg; CNV Incidence (%) [4, 5]: 51.85%; Leakage Light spot number [4, 5]: 154; CNV Incidence (%) [4, 6]: 48.92%; Leakage Light spot number [4, 6]: 91; CNV Incidence (%) [4, 7]: 45.99%; Leakage Light spot number [4, 7]: 63; CNV Incidence (%) [4, 8]: 40.58%; Leakage Light spot number [4, 8]: 28
